According to PMC7993387, “The preclinical inhibitor GS441524 in combination with GC376 efficaciously inhibited the proliferation of SARS-CoV-2 in the mouse respiratory tract” (Emerging Microbes & Infections, 2021):

Key:
[1] = Single-dose pharmacokinetics in BALB/c mice; format: in vivo; settings: for half-life / AUC(0-t) / CL/F / Cmax / Tmax / Vd/F / MRT last / MRT inf: BALB/c, mouse, plasma; for MRT last: read-out: MRT0−t; for MRT inf: read-out: MRT0−∞
Description: (§1) Healthy SPF BALB/c mice (7-8 weeks) and SD rats (4-6 weeks) were used in a single-dose PK study. […] The blood was collected at 0, 0.083, 0.25, 0.5, 1, 2, 4, 8, 12 and 24 h and placed in a precooled polypropylene centrifuge tube containing 3.0 µl of 40% EDTAK2. Then, the whole blood was centrifuged at 7800 g/min for 10 min at 4°C. Plasma was collected and stored in a freezer at −80°C. Plasma drug concentration was analyzed using LC-MS/MS. Pharmacokinetic parameters were calculated using WinNonlin software (version 6.4), and a non-atrioventricular model was used for data fitting. The data were analyzed using Microsoft Excel 2016 and GraphPad Prism 7.0.

[2] = Single-dose pharmacokinetics in SD rats; format: in vivo; settings: for AUC(0-t) / Tmax / Vd/F / CL/F / Cmax / half-life / MRT last / MRT inf: Sprague-Dawley, rat, plasma, im; for MRT last: read-out: MRT0−t; for MRT inf: read-out: MRT0−∞
Description: as §1

[3] = Cell viability (Cell Titer-Glo) in Vero E6 cells; format: cell-based; settings: African green monkey
Description: Cell viability was determined using the Cell Titer-Glo kit (Promega, Madison, WI, USA) following the manufacturer’s instructions. Briefly, Vero E6 cells were seeded in 96-well plates with opaque walls. […] Cell Titer-Glo reagent was added to each well, and luminescence was measured using a GloMax 96 Microplate Luminometer (Promega, Madison, WI, USA).

SARS-CoV-2 (HRB26M) = experiment: microbe, parasite or virus in culture; format: cell-based; settings: Severe acute respiratory syndrome coronavirus 2, Vero C1008, 24 h, combination molar ratio 1:1, read-out: EC50 (50% inhibitory concentration)
[4] = im, BALB/c mice, alone (GC376 111 mg/kg; GS441524 67 mg/kg)
[5] = im, BALB/c mice, i.m., alone (GC376 111 mg/kg; GS441524 67 mg/kg)
[6] = im, BALB/c mice, i.m., combined (GC376 55.5 + GS441524 33.5 mg/kg)
[7] = alone (GC376 111 mg/kg; GS441524 67 mg/kg)
[8] = combined (GC376 55.5 + GS441524 33.5 mg/kg)
[9] = im, 33.5 mg/kg, BALB/c mice, i.m., combined (GC376 55.5 + GS441524 33.5 mg/kg)
[10] = 33.5 mg/kg, i.m., combined (GC376 55.5 + GS441524 33.5 mg/kg)

With `CC(C)CC(NC(=O)OCc1ccccc1)C(=O)NC(CC1CCNC1=O)C(O)S(=O)(=O)O` (centres unmarked) [GC376] the “Cmax of GC376 relative to that of GS441524” value ([1]; BALB/c mice, i.m., alone) was “approximately 1.2 fold”, the “clearance rate (CL/F) of GC376 relative to that of GS441524” value ([1]; BALB/c mice, i.m., alone) was “approximately 3.1 fold” and the half-life ([1]; (GC376 55.5 + GS441524 33.5 mg/kg)) was 0.81 ± 0.22 h. For the same molecule, the AUC(0-t) [1, 4] was 55300 ± 11300 ng·h/mL, the CL/F [1, 4] was 33.1 mL/min/kg and the Cmax [1, 4] was 46700 ± 10700 ng/mL. The Tmax [1, 4] was 0.22 ± 0.07 h, the Vd/F [1, 4] was 2.87 ± 0.432 L/kg and the half-life [1, 4] was 1.12 ± 0.53 h. It also gave an MRT last [1, 5] of 1.05 ± 0.12 h, an MRT inf [1, 5] of 1.38 ± 0.59 h and an AUC(0-t) [1, 6] of 27800 ± 4410 ng·h/mL. It also gave a CL/F [1, 6] of 33.9 mL/min/kg, a Cmax [1, 6] of 30040 ± 220 ng/mL and a Tmax [1, 6] of 0.25 h. For the same molecule, the Vd/F [1, 6] was 2.34 ± 0.617 L/kg, the MRT last [1, 6] was 0.79 ± 0.09 h and the MRT inf [1, 6] was 0.88 ± 0.12 h. The AUC(0-t) [2] was 42400 ± 6440 ng·h/mL, the Tmax [2] was 1.4 ± 0.49 h and the Vd/F [2] was 5.17 ± 1.87 L/kg. For the same molecule, the AUC(0-t) [2, 7] was 92100 ± 9990 ng·h/mL, the CL/F [2, 7] was 20.1 mL/min/kg and the Cmax [2, 7] was 12600 ± 1900 ng/mL. The Tmax [2, 7] was 1.3 ± 0.6 h, the Vd/F [2, 7] was 6.75 ± 1.04 L/kg and the half-life [2, 7] was 3.87 ± 0.49 h. The MRT last [2, 7] was 5.83 ± 0.74 h, the MRT inf [2, 7] was 6.06 ± 0.64 h and the CL/F [2, 8] was 21.9 mL/min/kg. It also gave a Cmax [2, 8] of 11800 ± 1630 ng/mL, a half-life [2, 8] of 2.75 ± 0.91 h and an MRT last [2, 8] of 2.97 ± 0.41 h. The MRT inf [2, 8] was 3.32 ± 0.57 h, the “Cmax of GC376, fold lower than GS441524” value ([2]; i.m., alone) was “approximately 2.5 fold” and the “clearance rate (CL/F) of GC376 relative to that of GS441524” value ([2]; i.m., alone) was “approximately 2.9 fold”. It also gave a CC50 at 24 h [3] of over 250 µM and an EC50 (SARS-CoV-2 (HRB26M)) of 0.881 ± 0.109 µM.
With `N#C[C@@]1(c2ccc3c(N)ncnn23)O[C@H](CO)[C@@H](O)[C@H]1O` [GS441524] the “AUC0−t of GS441524 relative to that of GC376” value ([1]; BALB/c mice, i.m., alone) was “approximately 1.9 fold”, the AUC(0-t) [1, 9] was 49000 ± 11700 ng·h/mL and the CL/F [1, 9] was 11.8 mL/min/kg. The Cmax [1, 9] was 16000 ± 2200 ng/mL, the Tmax [1, 9] was 0.55 ± 0.24 h and the Vd/F [1, 9] was 1.68 ± 0.282 L/kg. For the same molecule, the half-life [1, 9] was 1.67 ± 0.24 h, the MRT last [1, 9] was 2.37 ± 0.73 h and the MRT inf [1, 9] was 2.48 ± 0.71 h. It also gave an AUC(0-t) [1, 4] of 107000 ± 16800 ng·h/mL, a CL/F [1, 4] of 10.7 mL/min/kg and a Cmax [1, 4] of 39600 ± 2930 ng/mL. It also gave a Tmax [1, 4] of 0.8 ± 0.24 h, a Vd/F [1, 4] of 1.37 ± 0.129 L/kg and a half-life [1, 4] of 1.51 ± 0.16 h. The MRT last [1, 5] was 2.07 ± 0.42 h, the MRT inf [1, 5] was 2.15 ± 0.42 h and the AUC(0-t) ([2]; 33.5 mg/kg) was 88300 ± 26800 ng·h/mL. For the same molecule, the Tmax ([2]; 33.5 mg/kg) was 3.4 ± 1.2 h, the Vd/F ([2]; 33.5 mg/kg) was 2.71 ± 1.25 L/kg and the CL/F [2, 10] was 6.6 mL/min/kg. For the same molecule, the Cmax [2, 10] was 10500 ± 1850 ng/mL, the half-life [2, 10] was 5.13 ± 2.56 h and the MRT last [2, 10] was 6.03 ± 1.37 h. For the same molecule, the MRT inf [2, 10] was 7.57 ± 2.93 h, the AUC(0-t) [2, 7] was 183000 ± 64400 ng·h/mL and the CL/F [2, 7] was 7.05 mL/min/kg. For the same molecule, the Cmax [2, 7] was 31000 ± 8400 ng/mL, the Tmax [2, 7] was 2 ± 1.1 h and the Vd/F [2, 7] was 2.25 ± 0.946 L/kg. The half-life [2, 7] was 3.8 ± 1.17 h, the MRT last [2, 7] was 4.5 ± 1.11 h and the MRT inf [2, 7] was 4.78 ± 1.49 h. For the same molecule, the “AUC0−t of GS441524, fold higher than GC376” value ([2]; i.m., alone) was “approximately 2.0 fold”, the CC50 at 24 h [3] was over 250 µM and the EC50 (SARS-CoV-2 (HRB26M)) was 5.05 ± 2.12 µM.
